5 molecules from US20030207843A1, “Treatment of drug-resistant human immunodeficiency virus infection” (priority 1999, published 2003) can be followed below.

Where two headings read alike, the source gives them in different places.

The term EC50 denotes the midpoint of the concentration-response curve.

Common to all, as to format: cell-based
The test system of assay [1] is HIV-1LAI (wild type, control). Description: p24 reduction assay in MT-2 cells, wild type virus. As for the experimental part: (§1) Cells. MT-2 cells (AIDS Research and Reference Reagent Program, National Institute of Allergy and Infectious Diseases, National Institutes of Health) were maintained in RPMI 1640 supplemented with 10% fetal bovine serum (FBS; JRH Biosciences, Lenexa, Kans.), 10 mM HEPES buffer, 50 IU/ml penicillin and 50 μg/ml streptomycin.
Viruses. Stock virus was prepared by electroporating (BIO-RAD Gene Pulser®, Hercules, Calif.) MT-2 cells (1.3×10^7 cells) with 5-10 μg of plasmid DNA encoding a proviral clone of HIV-1LAI (see Nguyen, et. al., Antimicrob. Agents Chemother. 38:2409-2414, and Peden, et. al., Virology 185: 661-672.). At peak cytopathic effect (generally 5-7 days post-transfection), culture supernatants were harvested and stored at −80° C. Viral infectivity titers were determined in threefold endpoint dilution assays conducted in MT-2 cells (six wells per dilution). The 50% tissue culture infective dose (TCID50) was calculated using the Reed and Muench equation (see Reed, et. al., Am. J. Hyg. 27:493-496).
(§2) Antiviral Susceptibility Assays. The antiviral activity of each compound […], followed by incubation in the presence of three-fold serial drug dilutions (3 wells per dilution) (see Mellors, et. al., Antimicrob. Agents Chemother. 39:1087-1092). Five or seven days after infection, culture supernatants were harvested, lysed with 0.5% triton-X 100 and assayed for p24 antigen concentration using a commercial ELISA assay (DuPont, NEN Products, Wilmington, Del.). The antiviral activity of the compounds is expressed as the IC50, which is the concentration required to inhibit 50% of p24 antigen production. The fold-resistance of a test virus is calculated by dividing the IC50 of the test virus by the IC50 of the HIV-1LAI control virus.
Cultures of MT-2 cells infected with either wild type (xxLAI) or with the drug-resistant strains of HIV-1 listed above were treated with lipid analogs of PFA (B-PFA, MB-PFA, or EB-PFA). The μM concentration required to produce 50% inhibition of replication of the drug-resistant strain of HIV (EC50) was determined as shown in Table 1. Drug effects were measured by assaying p24 (a viral protein) in the culture medium.

The subject of assay [2] is multidrug-resistant HIV-1 clinical isolate 11163p1. The assay can be described thus: p24 reduction assay in MT-2 cells, 11163p1. As for the experimental part: as §1, §2
The multi-drug resistant HIV-1 strains, 11163p1 and 11588p1, are human clinical isolates having the RT mutations indicated. […]

The next assay has as its system MT-2 cells. The assay can be described thus: In vitro selectivity index in MT-2 cells. As to conditions: (50% cytotoxic dose/50% effective dose)×100. As for the experimental part:
The in vitro selectivity indexes for PFA and lipid analogs of PFA were determined in MT-2 cells and are as follows:
Note that the selectivity index ((50% cytotoxic dose/50% effective dose)×100) is much greater for the lipid analogs of PFA than for PFA itself. Since the lipid analogs have a much greater oral absorption than PFA, they may be given orally for controlling replication of drug-resistant HIV either alone or in combination with one or more antiviral agents. AZT is especially preferred in combination with the lipid analogs of PFA.

Where [3] appears, read: Table 1, HIV-1LAI(control), MOI 0.01, p24, MT-2 cells, read-out: EC50.
Where [4] appears, read: Table 2, HIV-1LAI(control), MOI 0.05, read-out: EC50.
Setting [5] is: Table 3, Wild type, mean ± SD, at least three experiments, read-out: EC50.
Setting [6] is: Table 4, HIV-1LAI wild type, mean ± SD, two or three experiments, read-out: EC50.
Setting [7] is: Table 5, Wild type, mean ± SD, read-out: EC50.
Where [8] appears, read: Table 6, baseline virus HIV-1LAI passage 0, read-out: EC50.

For `Cc1cn([C@H]2C[C@H](N=[N+]=[N-])[C@@H](CO)O2)c(=O)[nH]c1=O` [AZT, 3′-Azido-3′-deoxythymidine], in assay [1] (Human immunodeficiency virus 1, MT2, Table 8, Wild type, mean ± SD, read-out: AZT EC50), the EC50 came to 21 ± 8 nM.

Consider `CCCCCCCCCCCCCCCCCCOC[C@@H](O)COP(=O)(O)C(=O)O` [B-PFA, 1-O-octadecyl-sn-glycero-3-PFA], for which the EC50 in assay [1] (setting [3]) was determined as 1900 nM; in assay [1] (setting [4]) it was 3010 nM; in assay [1] (setting [5]), 1790 ± 810 nM; in assay [1] (setting [6]), 1800 ± 810 nM; in assay [1] (setting [7]) it was 1790 ± 810 nM; in assay [2] (Table 2, MOI 0.05), 3.48 µM. In the assay with MT-2 cells, the “Selectivity Index” value is on record as 781.

On to `CCCCCCCCCCCCCCCCCCOC[C@H](COP(=O)(O)C(=O)O)OCC` [EB-PFA, 1-O-octadecyl-2-O-ethyl-sn-glycero-3-PFA], for which the EC50 was 220 nM in assay [1] (setting [3]); 760 nM in assay [1] (setting [4]); 650 ± 360 nM in assay [1] (setting [5]); 700 ± 360 nM in assay [1] (setting [6]); 650 ± 360 nM in assay [1] (setting [7]); 90 nM in assay [1] (setting [8]). In assay [2] (Table 2, MOI 0.05), it took 1.23 µM to reach a half-maximal effect (EC50). Also, the “Selectivity Index” value with MT-2 cells is on record as 1905.

`CCCCCCCCCCCCCCCCCCOC[C@H](COP(=O)(O)C(=O)O)OC` [MB-PFA, 1-O-octadecyl-2-O-methyl-sn-glycero-3-PFA]: the EC50 in assay [1] (setting [3]) was 350 nM; in assay [1] (setting [4]) it was 1040 nM; in assay [1] (setting [5]), 500 ± 480 nM; in assay [1] (setting [6]), 500 ± 480 nM; in assay [1] (setting [7]) it was 500 ± 480 nM; in assay [1] (setting [8]), 70 nM. For the same molecule, the “Selectivity Index” value in the assay on MT-2 cells was found to be 953.

For the molecule `O=C(O)P(=O)(O)O` [PFA, phosphonoformate, reference compound], the EC50 in assay [1] (Human immunodeficiency virus 1, MT2, Table 1, HIV-1LAI(control), MOI 0.01, p24, MT-2 cells, read-out: EC50) is 18300 nM; in assay [1] (Human immunodeficiency virus 1, MT2, Table 2, HIV-1LAI(control), MOI 0.05, read-out: EC50) it was 20100 nM; in assay [1] (Human immunodeficiency virus 1, MT2, Table 3, Wild type, mean ± SD, at least three experiments, read-out: EC50), 17700 ± 10100 nM; in assay [1] (Human immunodeficiency virus 1, MT2, Table 4, HIV-1LAI wild type, mean ± SD, two or three experiments, read-out: EC50) it was 17700 ± 10100 nM; in assay [1] (Human immunodeficiency virus 1, MT2, Table 5, Wild type, mean ± SD, read-out: EC50), 17700 ± 10100 nM; in assay [1] (Human immunodeficiency virus 1, MT2, Table 6, baseline virus HIV-1LAI passage 0, read-out: EC50) it was 5270 nM. Besides, the EC50 is 13100 nM in assay [1] (Human immunodeficiency virus 1, MT2, Table 7, Wild type, mean (SD in next grid row), read-out: EC50) and 24.4 µM in assay [2] (Human immunodeficiency virus 1, MT2, Table 2, MOI 0.05). Besides, the “Selectivity Index” value in the assay on MT-2 cells is recorded as 137.
